The record followed here is patent US20100015243A1, “METHOD FOR PREPARING MATERIALS HAVING ANTITHROMBOTIC ACTIVITY FROM MUSKRAT MUSK AND MATERIALS OBTAINED FROM THE METHOD” (priority 2006, published 2010).

In the assay the test system is Thrombin. The experiment in a line: Thrombin time measurement (antithrombotic activity) with Thrombitimer2. It is filed as biochemical. Particulars: per 0.1 mg of asprin; time until fibrinogen clots are formed; FIG. 8. On the procedure:
As for the 4th step, a thrombin time of the divided groups in the 3rd step are measured and the group showing the highest antithrombotic activity is selected. The thrombin time is, but not limited to, a time until fibrinogen clots are formed. For example, with Thrombitimer2 (Behnk Elektronik, Germany), after adding Thrombin (T46481KU-59NIH unit/mg) and fibrinogen, the time until fibrinogen clots are formed is counted.
The activity was measured by counting a thrombin time according to the method described in Choi et al., Kor. J. Pharmacogn. 26, 154-158, 1995 and Son et al., Kor. J. Pharmacogn. 34 (1):52-61, 2004.
Specifically, the thrombin time was measured with Thrombitimer2 (Behnk Elektronik, Germany) wherein a fixed concentration of specimen was dissolved in 10 ? of dimethylsulfoxide (DMSO), the solution was added to a tube with 50 ? of borate buffer (pH7.8), Thrombin 1 unit/50 ? (T46481KU-59NIH unit/mg solid, Sigma Co., USA) was mixed with the solution, the mixture was warmed at 37° C. for 5 minutes, 200 ? of fibrinogen (0.33%, Sigma Co., USA) was added to it, and the time until coaggulation occurs was counted. […]
Antithrombotic activity was measured by counting a thrombin time and the result is an average of at least 3 experiments.

Take `CC(=O)Oc1ccccc1C(=O)O` [asprin]: the thrombin time came to 15 s.
